Patent publication US4226857A, “Synthetic peptides having pituitary growth hormone releasing activity” (priority 1979, dated 1980)
Square brackets hold non-standard residues; d marks the D form. Peptide text beside a SMILES is read from it.

Tested on: pituitaries
Test: In vitro growth hormone release study (rat pituitary incubation, GH radioimmunoassay)
Assay type: cell-based
Conditions: pituitaries of 20 day old female rats, Δ of GH levels between I3, I4 and P2, ± SEM
Method: Female rats of the CD-1 strain were housed in a constant temperature room at 24° C. with 14 hours light and 10 hours darkness. The rats were fed Purina brand rat chow ab libitum.
All studies were started between 0800 and 1000 hours.
Pituitaries were removed from 20 day old female rats. Two pituitaries were incubated at 36° C. in 1 ml of lactated Ringer's solution in 10 ml polytetrafluoroethylene beakers in a Dubnoff Shaker (90 cycles/min.). The pituitaries were incubated a total of 4 hours (P1, P2, I3, and I4). After two successive one hour preincubation periods (P1, P2), the peptide was added to the incubation medium hourly for 2 hours (I3, I4).
This in vitro study was performed in triplicate and a standard radioimmunoassay of growth hormone present in the incubation medium was performed in duplicate. The hormonal activity was calculated as the difference (Δ) of growth hormone (GH) levels between I3, I4 and P2, i.e., (I3 -P2) and (I4 -P2). P values were calculated by Students' t test using six growth hormone values for each value recorded.
The growth hormone radioimmunoassay reagents were distributed by the National Institute of Arthritis and […] (NIAMDD) program. The growth hormone values were calculated in terms of nanograms (ng) of a rat standard with a growth hormone potency of 0.61 units/mg.

[1] = peptide 0.1μg, P <0.001 unless otherwise noted

Compound	In vitro growth hormone release (ΔGH) [1]	In vitro growth hormone release (ΔGH) (peptide 0.3μg, P <0.001)	In vitro growth hormone release (ΔGH) (peptide 1μg, P <0.001)	In vitro growth hormone release (ΔGH) (peptide 10μg, P <0.001)
C[C@H](NC(=O)[C@@H](Cc1c[nH]c2ccccc12)NC(=O)[C@@H](N)Cc1ccc(O)cc1)C(=O)N[C@@H](Cc1c[nH]c2ccccc12)C(=O)N[C@H](Cc1ccccc1)C(N)=O [H2 N--Tyr--D-Trp--Ala--Trp--D-Phe--CONH2, H2 N-Tyr-D-Trp-Ala-Trp-D-Phe-CONH2] (H-Y[dW]AW[dF]-NH2)	3409 ± 455 ngΔGH/ml incubation medium	4540 ± 1200 ngΔGH/ml incubation medium	4611 ± 510 ngΔGH/ml incubation medium	5000 ± 662 ngΔGH/ml incubation medium
NC(=O)[C@@H](Cc1ccccc1)NC(=O)[C@H](Cc1c[nH]c2ccccc12)NC(=O)[C@H](CO)NC(=O)[C@@H](Cc1c[nH]c2ccccc12)NC(=O)[C@@H](N)Cc1ccc(O)cc1 [H2 N--Tyr--D-Trp--Ser--Trp--D-Phe--CONH2, H2 N-Tyr-D-Trp-Ser-Trp-D-Phe-CONH2] (H-Y[dW]SW[dF]-NH2)	353 ± 144 ngΔGH/ml incubation medium		3119 ± 413 ngΔGH/ml incubation medium	3831 ngΔGH/ml incubation medium
